Results from PubChem BioAssay (NCI).
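GI50 is the concentration that inhibits growth by half. The concentration for full growth arrest is given as TGI.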

What was measured:
Assay in all cases: growth of human tumour cells (NCI), 384-well format
KM12 colon = system: KM12 colon
MDA-MB-231 breast = system: MDA-MB-231 breast
SNB-19 CNS = system: SNB-19 CNS
UACC-62 melanoma = system: UACC-62 melanoma
SW-620 colon = system: SW-620 colon
CAKI-1 renal = system: CAKI-1 renal
A498 renal = system: A498 renal
U251 glioblastoma = system: U251 glioblastoma
T-47D breast = system: T-47D breast
NCI-H460 NSCLC = system: NCI-H460 NSCLC
HS 578T breast = system: HS 578T breast
ACHN renal = system: ACHN renal
OVCAR-8 ovarian = system: OVCAR-8 ovarian
SK-MEL-2 melanoma = system: SK-MEL-2 melanoma
HOP-92 NSCLC = system: HOP-92 NSCLC
SR leukemia = system: SR leukemia
HCT-116 colon = system: HCT-116 colon
SF-268 CNS = system: SF-268 CNS
OVCAR-4 ovarian = system: OVCAR-4 ovarian
K-562 leukemia = system: K-562 leukemia
TK-10 renal = system: TK-10 renal
SK-OV-3 ovarian = system: SK-OV-3 ovarian
MALME-3M melanoma = system: MALME-3M melanoma
CCRF-CEM leukemia = system: CCRF-CEM leukemia
NCI/ADR-RES ovarian = system: NCI/ADR-RES ovarian
SK-MEL-28 melanoma = system: SK-MEL-28 melanoma
HOP-62 NSCLC = system: HOP-62 NSCLC
OVCAR-5 ovarian = system: OVCAR-5 ovarian
LOX IMVI melanoma = system: LOX IMVI melanoma
SN12C renal = system: SN12C renal
NCI-H322M lung = system: NCI-H322M lung
786-0 renal = system: 786-0 renal
HCC-2998 colon = system: HCC-2998 colon
MOLT-4 leukemia = system: MOLT-4 leukemia
MCF7 breast = system: MCF7 breast
A549 NSCLC = system: A549 NSCLC
HCT-15 colon = system: HCT-15 colon
NCI-H522 lung = system: NCI-H522 lung
RXF 393 renal = system: RXF 393 renal
M14 melanoma = system: M14 melanoma
PC-3 prostate = system: PC-3 prostate
NCI-H23 lung = system: NCI-H23 lung
MDA-MB-435 melanoma = system: MDA-MB-435 melanoma
HT29 colon = system: HT29 colon
SF-295 CNS = system: SF-295 CNS
IGROV1 ovarian = system: IGROV1 ovarian
SNB-75 CNS = system: SNB-75 CNS
BT-549 breast = system: BT-549 breast
SK-MEL-5 melanoma = system: SK-MEL-5 melanoma
SF-539 CNS = system: SF-539 CNS
EKVX NSCLC = system: EKVX NSCLC
MDA-MB-468 breast = system: MDA-MB-468 breast
DU-145 prostate = system: DU-145 prostate
COLO 205 colon = system: COLO 205 colon
OVCAR-3 ovarian = system: OVCAR-3 ovarian
RPMI-8226 leukemia = system: RPMI-8226 leukemia
UACC-257 melanoma = system: UACC-257 melanoma
HL-60(TB) leukemia = system: HL-60(TB) leukemia

SMILES: COc1cc(F)ccc1-c1ncnc(Nc2cccc(CS(C)(=N)=O)c2)n1 (centres undefined)
- GI50 (KM12 colon): 322 nM
- TGI (KM12 colon): 2120 nM
- GI50 (MDA-MB-231 breast): 559 nM
- TGI (MDA-MB-231 breast): 2680 nM
- GI50 (SNB-19 CNS): 988 nM
- TGI (SNB-19 CNS): > 100 µM
- GI50 (UACC-62 melanoma): 240 nM
- TGI (UACC-62 melanoma): 1080 nM
- GI50 (SW-620 colon): 776 nM
- TGI (SW-620 colon): 4.82 µM
- GI50 (CAKI-1 renal): 404 nM
- TGI (CAKI-1 renal): > 100 µM
- GI50 (A498 renal): 448 nM
- GI50 (U251 glioblastoma): 872 nM
- TGI (U251 glioblastoma): > 19.9 µM
- GI50 (T-47D breast): 3.01 µM
- TGI (T-47D breast): > 100 µM
- GI50 (NCI-H460 NSCLC): 815 nM
- TGI (NCI-H460 NSCLC): 3.56 µM
- GI50 (HS 578T breast): 465 nM
- TGI (HS 578T breast): 1690 nM
- GI50 (ACHN renal): 510 nM
- TGI (ACHN renal): > 100 µM
- GI50 (OVCAR-8 ovarian): 520 nM
- TGI (OVCAR-8 ovarian): 2610 nM
- GI50 (SK-MEL-2 melanoma): 1040 nM
- TGI (SK-MEL-2 melanoma): 2460 nM
- GI50 (HOP-92 NSCLC): 1700 nM
- TGI (HOP-92 NSCLC): > 23.9 µM
- GI50 (SR leukemia): 39.5 nM
- TGI (SR leukemia): 112 nM
- GI50 (HCT-116 colon): 300 nM
- TGI (HCT-116 colon): > 100 µM
- GI50 (SF-268 CNS): 331 nM
- TGI (SF-268 CNS): 1410 nM
- GI50 (OVCAR-4 ovarian): 1830 nM
- TGI (OVCAR-4 ovarian): 6.09 µM
- GI50 (K-562 leukemia): 2000 nM
- TGI (K-562 leukemia): 15 µM
- GI50 (TK-10 renal): 819 nM
- TGI (TK-10 renal): > 100 µM
- GI50 (SK-OV-3 ovarian): 2550 nM
- TGI (SK-OV-3 ovarian): 6.68 µM
- GI50 (MALME-3M melanoma): 843 nM
- TGI (MALME-3M melanoma): 2300 nM
- GI50 (CCRF-CEM leukemia): 299 nM
- TGI (CCRF-CEM leukemia): 1050 nM
- GI50 (NCI/ADR-RES ovarian): 2580 nM
- TGI (NCI/ADR-RES ovarian): 21.8 µM
- GI50 (SK-MEL-28 melanoma): 572 nM
- TGI (SK-MEL-28 melanoma): 2360 nM
- GI50 (HOP-62 NSCLC): 330 nM
- TGI (HOP-62 NSCLC): 1500 nM
- GI50 (OVCAR-5 ovarian): 316 nM
- TGI (OVCAR-5 ovarian): > 100 µM
- GI50 (LOX IMVI melanoma): 312 nM
- TGI (LOX IMVI melanoma): 1660 nM
- GI50 (SN12C renal): 668 nM
- TGI (SN12C renal): 3.52 µM
- GI50 (NCI-H322M lung): 384 nM
- TGI (NCI-H322M lung): 2610 nM
- GI50 ([…]-0 renal): 683 nM
- TGI (786-0 renal): 3.88 µM
- GI50 (HCC-2998 colon): 1000 nM
- TGI (HCC-2998 colon): 3.77 µM
- GI50 (MOLT-4 leukemia): 506 nM
- TGI (MOLT-4 leukemia): 1620 nM
- GI50 (MCF7 breast): 408 nM
- TGI (MCF7 breast): > 100 µM
- GI50 (A549 NSCLC): 1610 nM
- TGI (A549 NSCLC): > 100 µM
- GI50 (HCT-15 colon): 462 nM
- GI50 (NCI-H522 lung): 1770 nM
- TGI (NCI-H522 lung): 4.12 µM
- GI50 (RXF 393 renal): 228 nM
- TGI (RXF 393 renal): 586 nM
- GI50 (M14 melanoma): 980 nM
- TGI (M14 melanoma): 3.86 µM
- GI50 (PC-3 prostate): 795 nM
- TGI (PC-3 prostate): 4.96 µM
- GI50 (NCI-H23 lung): 568 nM
- TGI (NCI-H23 lung): 2240 nM
- GI50 (MDA-MB-435 melanoma): 1440 nM
- TGI (MDA-MB-435 melanoma): > 19.7 µM
- GI50 (HT29 colon): 1400 nM
- TGI (HT29 colon): 4.15 µM
- GI50 (SF-295 CNS): 1210 nM
- TGI (SF-295 CNS): 5.07 µM
- GI50 (IGROV1 ovarian): 919 nM
- TGI (IGROV1 ovarian): > 100 µM
- GI50 (SNB-75 CNS): 592 nM
- TGI (SNB-75 CNS): 2180 nM
- GI50 (BT-549 breast): 773 nM
- TGI (BT-549 breast): 2600 nM
- GI50 (SK-MEL-5 melanoma): 455 nM
- TGI (SK-MEL-5 melanoma): 1840 nM
- GI50 (SF-539 CNS): 986 nM
- TGI (SF-539 CNS): 2820 nM
- GI50 (EKVX NSCLC): 1280 nM
- TGI (EKVX NSCLC): 4.28 µM
- GI50 (MDA-MB-468 breast): 1120 nM
- TGI (MDA-MB-468 breast): 2470 nM
- GI50 (DU-145 prostate): 402 nM
- TGI (DU-145 prostate): 3.75 µM
- GI50 (COLO 205 colon): 339 nM
- TGI (COLO 205 colon): 1920 nM
- GI50 (OVCAR-3 ovarian): 384 nM
- TGI (OVCAR-3 ovarian): 1810 nM
- GI50 (RPMI-8226 leukemia): 1700 nM
- TGI (RPMI-8226 leukemia): 3.08 µM
- GI50 (UACC-257 melanoma): 1600 nM
- TGI (UACC-257 melanoma): 3.44 µM
- GI50 (HL-60(TB) leukemia): 182 nM
- TGI (HL-60(TB) leukemia): 391 nM
